Data on six compounds can be found in patent US20110039873A1, “SUBSTITUTED PYRAZOLO[1,5-a] PYRIDINE COMPOUNDS HAVING MULTI-TARGET ACTIVITY” (priority 2009, published 2011).

In data set [1] the target is T1, recombinant full length human JNK3 enzyme (Homo sapiens, UniProt P53779).
T1 construct: recombinant full length human JNK2 or JNK3 enzyme; purchased Upstate; host or cells: Sf21 cells
As to the kind of experiment: JNK 3 inhibition assay (ATP depletion, luciferase). Type of data set: biochemical. Particulars: for IC50: 10 uM ATP, ATF2 substrate; for JNK-3 inhibition (in words): see Table 2. The procedure: In a 96-well plate, recombinant full length human JNK2 or JNK3 enzyme (40 ng) expressed in Sf21 cells (Upstate) was incubated with the substrate ATF2 (3 uM) for 1 hour in the presence of 10 uM ATP. […] The ATP levels were quantified using luciferase with luminescence read on a Victor Light 1420 luminometer. IC50 calculations were plotted using a nonlinear regression curve fit.

The subject of data set [2] is rat chronic constriction injury (CCI) model of neuropathic pain. The data set is described as follows: Rat chronic constriction injury (CCI) model of neuropathic pain. Conditions: IP, dose not given; 50% paw withdrawal threshold, von Frey. Type of data set: in vivo. The procedure: To induce allodynia, male Sprague-Dawley rats underwent chronic constriction injury (CCI) to the sciatic nerve as described by Bennett and Xie, Pain 1988; 33(1):87-107. The plantar surface of the hind paws was stimulated with von Frey filaments (Stoelting) to induce a withdrawal response by blinded personnel. The bending force of fiber required to induce a 50% withdrawal response was calculated following CCI surgery (pre-dosing baseline). N=5-6 allodynic rats received a single IP or oral administration of test compounds or vehicle. Two hours post-dosing, 50% paw withdrawal threshold was determined again by blinded testers using von Frey filaments. The 50% withdrawal threshold prior to CCI surgery, pre-dosing (10 days post-surgery), and 2 hours post-dosing are plotted.
For selected compounds multi-day studies were perfumed with pre-determined schedules for dosing and withdrawal threshold assessments.

Data set [3] addresses T2, recombinant human phosphodiesterase 10A1 enzyme (Homo sapiens, UniProt Q9Y233).
T2 construct: purchased BPS Biosciences; host or cells: Baculovirus infected Sf9 cells
The data set is described as follows: PDE10 inhibition assay (PDELight). Conditions: for IC50: 1 uM cAMP, read-out: PDE 10 Inhibition (IC50 in μM); for PDE-10 inhibition (in words): Table 2. Type of data set: biochemical. The procedure: In a 96-well plate, recombinant human phosphodiesterase 10A1 enzyme (10 U/well) expressed in Baculovirus infected Sf9 cells (BPS Biosciences) was combined with 1 uM cAMP substrate (Sigma). […] Using a PDELight® kit (Cambrex), the amount of AMP produced in the reaction from the hydrolysis of cAMP was quantified using PDELight AMP Detection Reagent which converts the AMP directly to ATP. The assay uses luciferase, which catalyses the formation of light from the newly formed ATP and luciferin. The luminescence was read on a Victor Light 1420 luminometer. IC50 calculations were plotted using a nonlinear regression curve fit.

In data set [4] the target is T3, catalytic domain of phosphodiesterase 4B enzyme cloned from human brain (Homo sapiens, UniProt Q07343).
T3 construct: the catalytic domain of phosphodiesterase 4B enzyme; purchased Scottish Biomedical
As to the kind of experiment: PDE4 inhibition assay (PDELight). Particulars: for IC50: 5 uM cAMP, read-out: PDE 4 Inhibition (IC50 in μM). Type of data set: biochemical. The procedure: In a 96-well plate, the catalytic domain of phosphodiesterase 4B enzyme (40 mU/well) cloned from human brain (Scottish Biomedical) was combined with 5 uM cAMP substrate (Sigma). […] Using a PDELight® kit (Cambrex), the amount of AMP produced in the reaction from the hydrolysis of cAMP was quantified using PDELight AMP Detection Reagent which converts the AMP directly to ATP. The assay uses luciferase, which catalyses the formation of light from the newly formed ATP and luciferin. […] IC50 calculations were plotted using a nonlinear regression curve fit.

Data set [5] deals with at least one of JNK 3 or JNK 2 and at least one of PDE 10 or PDE 4. As to the kind of experiment: Dual inhibition (phosphodiesterase and JNK). It counts as biochemical, human. Conditions: IC50 JNK 3 or JNK 2 less than about 5.00 μM and PDE 10 or PDE 4 less than about 20.0 or 30.0 μM. The procedure: In a 96-well plate, recombinant full length human JNK2 or JNK3 enzyme (40 ng) expressed in Sf21 cells (Upstate) was incubated with the substrate ATF2 (3 uM) for 1 hour in the presence of 10 uM ATP. The amount of ATP depletion by the JNK enzyme is measured in the presence or absence of test compounds (0-30 uM). The ATP levels were quantified using luciferase with luminescence read on a Victor Light 1420 luminometer. IC50 calculations were plotted using a nonlinear regression curve fit.
In a 96-well plate, the catalytic domain of phosphodiesterase 4B enzyme (40 mU/well) cloned from human brain (Scottish Biomedical) was combined with 5 uM cAMP substrate (Sigma). Test compounds (0-30 uM) or vehicle (0.5% DMSO) were added to the enzyme/substrate and incubated 1 hour. Using a PDELight® kit (Cambrex), the amount of AMP produced in the reaction from the hydrolysis of cAMP was quantified using PDELight AMP Detection Reagent which converts the AMP directly to ATP. The assay uses luciferase, which catalyses the formation of light from the newly formed ATP and luciferin. The luminescence was read on a Victor Light 1420 luminometer. IC50 calculations were plotted using a nonlinear regression curve fit.
In a 96-well plate, recombinant human phosphodiesterase 10A1 enzyme (10 U/well) expressed in Baculovirus infected Sf9 cells (BPS Biosciences) was combined with 1 uM cAMP substrate (Sigma). Test compounds (0-30 uM) or vehicle (0.5% DMSO) were added to the enzyme/substrate and incubated 1 hour. Using a PDELight® kit (Cambrex), the amount of AMP produced in the reaction from the hydrolysis of cAMP was quantified using PDELight AMP Detection Reagent which converts the AMP directly to ATP. The assay uses luciferase, which catalyses the formation of light from the newly formed ATP and luciferin. The luminescence was read on a Victor Light 1420 luminometer. IC50 calculations were plotted using a nonlinear regression curve fit.

Data set [6] has as its target T4, recombinant full length human JNK2 enzyme (Homo sapiens, UniProt P45984).
T4 construct: recombinant full length human JNK2 or JNK3 enzyme; purchased Upstate; host or cells: Sf21 cells
As to the kind of experiment: JNK 2 inhibition assay (ATP depletion, luciferase). It counts as biochemical. The procedure:
In a 96-well plate, recombinant full length human JNK2 or JNK3 enzyme (40 ng) expressed in Sf21 cells (Upstate) was incubated with the substrate ATF2 (3 uM) for 1 hour in the presence of 10 uM ATP. […] IC50 calculations were plotted using a nonlinear regression curve fit.

The test system of data set [7] is Mouse BV-2 microglial cells. As to the kind of experiment: BV-2 glial cell assay (TNF-α and MCP-1 by Luminex). Type of data set: cell-based. Conditions: for EC50: Mus musculus, BV-2, LPS and IFN-γ activated, 20 hours; for inhibiting glial cell activation (TNF-α and/or MCP-1): Table 3. The procedure:
Mouse BV-2 microglial cells were seeded on 96-well plates at a concentration of 3×10^4 cells/well. Cells were activated with 100 ng/mL LPS and IFN-γ (100 ng/mL) in the presence or absence of test compounds (0-30 uM). Following incubation for 20 hours, cells were spun down and supernatant collected. The supernatant was analyzed via Luminex for the presence of TNF-α and MCP-1.

A short description of data set [8]: Oral pharmacokinetic evaluation. Type of data set: in vivo, rat. Conditions: Sprague-Dawley rats. The procedure:
Three male Sprague-Dawley rats were dosed orally via gavage with 15 mg/kg of test compound. Serial blood samples were collected from the jugular vein at 5, 15, and 30 min, 1, 3, and 6 hours post dosing. Samples were processed for plasma via centrifugation and plasma samples were stored frozen prior to analysis via a sensitive and specific HPLC/MS/MS method. PK parameters were calculated using WinNonLin (Pharsight).

Where [9] appears, read: read-out: IC50 value based upon a JNK 2 inhibition assay (range given).
Where [10] appears, read: 10 uM ATP, ATF2 substrate, read-out: JNK 2 Inhibition (IC50 in μM).
The mark [11] stands for this setting: read-out: MCP-1 BV-2 (EC50 in μM).
[12] abbreviates: read-out: TNF-a BV-2 (EC50 in μM).

Read-outs that look alike come from different tables or passages of the source. A value given as a limit tells only on which side of the number the result lay.

T1 sequence (P53779 whole entry): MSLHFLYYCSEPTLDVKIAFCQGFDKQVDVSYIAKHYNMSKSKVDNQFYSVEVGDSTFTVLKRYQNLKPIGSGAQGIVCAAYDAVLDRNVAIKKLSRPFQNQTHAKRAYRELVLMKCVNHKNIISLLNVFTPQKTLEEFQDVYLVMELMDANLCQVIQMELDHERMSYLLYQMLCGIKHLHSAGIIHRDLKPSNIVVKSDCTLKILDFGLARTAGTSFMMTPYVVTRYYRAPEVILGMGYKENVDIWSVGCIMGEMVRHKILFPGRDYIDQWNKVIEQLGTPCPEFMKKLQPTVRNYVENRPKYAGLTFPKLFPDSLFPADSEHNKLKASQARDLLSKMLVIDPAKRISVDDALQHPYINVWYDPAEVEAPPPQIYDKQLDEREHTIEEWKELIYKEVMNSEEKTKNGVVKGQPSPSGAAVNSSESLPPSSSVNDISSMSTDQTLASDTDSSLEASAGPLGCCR
T4 sequence (P45984 whole entry): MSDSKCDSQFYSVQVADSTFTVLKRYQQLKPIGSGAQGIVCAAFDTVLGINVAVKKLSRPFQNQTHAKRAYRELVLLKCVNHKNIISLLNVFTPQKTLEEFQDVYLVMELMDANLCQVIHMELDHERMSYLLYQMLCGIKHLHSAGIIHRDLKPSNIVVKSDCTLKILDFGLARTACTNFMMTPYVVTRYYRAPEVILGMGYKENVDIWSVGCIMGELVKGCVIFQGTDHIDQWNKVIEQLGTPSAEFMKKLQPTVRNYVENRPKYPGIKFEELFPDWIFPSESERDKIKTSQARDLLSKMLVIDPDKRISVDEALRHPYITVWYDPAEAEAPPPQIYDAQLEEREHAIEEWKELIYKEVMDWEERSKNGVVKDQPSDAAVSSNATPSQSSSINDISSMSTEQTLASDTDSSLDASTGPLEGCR
T3 sequence (Q07343 330-659 limits assumed): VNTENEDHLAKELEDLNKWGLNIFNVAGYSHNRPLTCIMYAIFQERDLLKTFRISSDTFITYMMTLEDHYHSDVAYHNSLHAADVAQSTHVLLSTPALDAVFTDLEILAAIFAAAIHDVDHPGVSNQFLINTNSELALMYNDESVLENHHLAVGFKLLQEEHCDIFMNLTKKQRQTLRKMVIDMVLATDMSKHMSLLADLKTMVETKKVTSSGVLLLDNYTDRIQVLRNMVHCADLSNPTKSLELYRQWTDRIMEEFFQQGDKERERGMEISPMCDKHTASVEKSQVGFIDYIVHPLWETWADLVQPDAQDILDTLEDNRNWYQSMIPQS
T2 sequence (Q9Y233 1-779 isoform Q9Y233-1): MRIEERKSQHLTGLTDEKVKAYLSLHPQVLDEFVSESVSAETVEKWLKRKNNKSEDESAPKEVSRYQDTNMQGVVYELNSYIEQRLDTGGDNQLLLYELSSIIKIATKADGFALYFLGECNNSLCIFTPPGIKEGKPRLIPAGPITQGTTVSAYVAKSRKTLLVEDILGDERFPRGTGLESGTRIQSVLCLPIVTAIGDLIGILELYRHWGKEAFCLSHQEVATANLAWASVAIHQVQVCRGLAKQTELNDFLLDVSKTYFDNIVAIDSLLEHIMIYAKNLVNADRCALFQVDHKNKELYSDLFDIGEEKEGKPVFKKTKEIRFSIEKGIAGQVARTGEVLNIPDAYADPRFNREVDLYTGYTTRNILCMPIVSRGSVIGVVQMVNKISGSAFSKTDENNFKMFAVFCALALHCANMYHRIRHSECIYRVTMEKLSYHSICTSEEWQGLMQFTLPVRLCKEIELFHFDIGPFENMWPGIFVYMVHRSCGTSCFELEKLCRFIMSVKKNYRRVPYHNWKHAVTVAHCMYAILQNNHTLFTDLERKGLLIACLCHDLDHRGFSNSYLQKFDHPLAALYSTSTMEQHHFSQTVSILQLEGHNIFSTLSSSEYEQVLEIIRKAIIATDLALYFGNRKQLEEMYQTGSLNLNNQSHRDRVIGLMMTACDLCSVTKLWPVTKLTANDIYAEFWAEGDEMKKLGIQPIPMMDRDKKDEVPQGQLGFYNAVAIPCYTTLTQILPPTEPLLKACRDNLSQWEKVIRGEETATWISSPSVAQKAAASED

For the compound `CC(C)c1nn2ccccc2c1-c1ccnc(NCCCO)n1` [AV1134, 3-(4-(2-isopropylpyrazolo[1,5-a]pyridin-3-yl)pyrimidin-2-ylamino)propan-1-ol], the 50% inhibitory concentration (IC50) in data set [1] was determined as 8.2 µM. Also, the “IP CCI efficacy (Change in grams)” value in data set [2] turned out to be 0 grams. Besides, in data set [3], the concentration for half-maximal inhibition (IC50) is 9.3 µM and the “PDE-10 inhibition (in words)” value is reported as “particularly effective”. Further, in data set [4], the “PDE-4 inhibition (in words)” value is “particularly effective” and the IC50 was determined as 6.2 µM. Moreover, in data set [5], the “dual inhibition (phosphodiesterase and JNK)” value (from here on “dual inhibition”) is listed as “effective dual inhibitors”.

For `CC(C)c1nn2ccccc2c1-c1ccnc(NC2CC2)n1` [AV1136, N-cyclopropyl-4-(2-isopropylpyrazolo[1,5-a]pyridin-3-yl)pyrimidin-2-amine], in data set [1], the IC50 turned out to be 1.5 µM and the “JNK-3 inhibition (in words)” value is “particularly effective”. Also, the “IP CCI efficacy (Change in grams)” value in data set [2] is listed as 0 grams. In addition, in data set [3], the IC50 turned out to be 16.8 µM and the “PDE-10 inhibition (in words)” value was “particularly effective”. Further, in data set [4], the “PDE-4 inhibition (in words)” value is recorded as “particularly effective” and the IC50 amounted to 4.5 µM. Besides, the “dual inhibition” value in data set [5] is “effective dual inhibitors”.

On to `CC(C)c1nn2ccccc2c1-c1ccnc(NC2CCC2)n1` [AV1156, N-cyclobutyl-4-(2-isopropylpyrazolo[1,5-a]pyridin-3-yl)pyrimidin-2-amine], for which the half-inhibitory concentration (IC50) in data set [1] is 3 µM; in data set [6] (setting [9]), 0.01 to 2 µM; in data set [3] it was 20 µM; in data set [4], 8.6 µM. For the same compound, in data set [2], the “IP CCI efficacy (Change in grams)” value turned out to be 0.33 grams. Besides, in data set [4], the “PDE-4 inhibition (in words)” value is “particularly effective”. Also, the “dual inhibition” value in data set [5] is on record as “effective dual inhibitors”.

Take `Cc1cccc2c(-c3ccnc(NC(C)C)n3)c(C(C)C)nn12` [AV1168, N-isopropyl-4-(2-isopropyl-7-methylpyrazolo[1,5-a]pyridin-3-yl)pyrimidin-2-amine]: the IC50 is 2.2 µM in data set [1], 8.1 µM in data set [6] (setting [10]), 59 µM in data set [3] and 2.9 µM in data set [4]. Also, the “IP CCI efficacy (Change in grams)” value in data set [2] is 0 grams. For the same compound, the “PDE-4 inhibition (in words)” value in data set [4] is “particularly effective”. Moreover, in data set [5], the “dual inhibition” value is on record as “effective dual inhibitors”.

As for `Clc1cccc(-c2nn3ccccc3c2-c2ccnc(NC3CCCC3)n2)c1` [AV1194, 4-(2-(3-chlorophenyl)pyrazolo[1,5-a]pyridin-3-yl)-N-cyclopentylpyrimidin-2-amine], the half-inhibitory concentration (IC50) was 0.08 µM in data set [1]; 0.1 µM in data set [6] (setting [10]); 0.01 to 2 µM in data set [6] (setting [9]); greater than 100 µM in data set [3]; 5.2 µM in data set [4]. Besides, in data set [1], the “JNK-3 inhibition (in words)” value was “particularly effective”. Besides, the EC50 came to 1.2 µM in data set [7] (setting [11]) and 0.03 µM in data set [7] (setting [12]). In data set [7], the “inhibiting glial cell activation (TNF-α and/or MCP-1)” value is reported as “Particularly effective”. Besides, the “PDE-4 inhibition (in words)” value in data set [4] is recorded as “particularly effective”. Besides, the “dual inhibition” value in data set [5] was “effective dual inhibitors”.

Consider `Brc1cccc(-c2nn3ccccc3c2-c2ccnc(NC3CCCC3)n2)c1` [AV1195, 4-(2-(3-bromophenyl)pyrazolo[1,5-a]pyridin-3-yl)-N-cyclopentylpyrimidin-2-amine], for which the IC50 was 0.05 µM in data set [1]; 0.09 µM in data set [6] (setting [10]); 0.01 to 2 µM in data set [6] (setting [9]); greater than 100 µM in data set [3]; 4.9 µM in data set [4]. The “JNK-3 inhibition (in words)” value in data set [1] is “particularly effective”. The “IP CCI efficacy (Change in grams)” value in data set [2] is “[0] grams”. In data set [8] (oral), the “half life following oral dosing (in words)” value is given as “particularly prolonged half lives”. The half-life in data set [8] (male, Sprague-Dawley, rat, plasma, po, 15 mg/kg, 15 mg/kg oral gavage, plasma, read-out: Oral PK T½ (converted)) was 1.2 h. Moreover, the AUC(0-t) in data set [8] (male, rat, 15 mg/kg oral gavage, plasma, read-out: Oral PK AUClast) was determined as 581 ng·h/mL. For the same compound, the Cmax in data set [8] (male, rat, 15 mg/kg oral gavage, plasma, read-out: Oral PK Cmax) worked out at 211 ng/mL. Further, the EC50 in data set [7] (setting [11]) was determined as 0.7 µM; in data set [7] (setting [12]) it was 0.03 µM. In data set [7], the “inhibiting glial cell activation (TNF-α and/or MCP-1)” value is “Particularly effective”. In data set [4], the “PDE-4 inhibition (in words)” value was “particularly effective”. The “dual inhibition” value in data set [5] was “effective dual inhibitors”.
